Measurements published in US20060216333A1, “Methods related to the treatment of mucosal associated conditions” (priority 2003, published 2006).
Marks after values point to notes of the source that are not given here.

How the values were obtained:
Format in all cases: in vivo, rat
TNF = assay: Serum and vaginal tissue TNF after intravaginal dosing of rats (ELISA); settings: for TNF Tissue: vaginal tissue, per 200 mg
Experimental: (§1) In the examples below the serum and intravaginal cytokine data were obtained using the following general test method.
(§2) Rats were acclimated to collars (Lomir Biomedical, Malone, N.Y.) around the neck on two consecutive days prior to actual dosing. Rats were collared to prevent removal of the device and ingestion of the drug. Animals were then dosed intravaginally with a removable device or with […] of cream. Single dosed rats received one intravaginal dose with samples collected at various times following dosing. Blood was collected by cardiac puncture. Blood was allowed to clot briefly at room temperature and serum was separated from the clot via centrifugation. The serum was stored at −20° C. until it was analyzed for cytokine concentrations.
(§3) Following blood collection, the rats were euthanized and their vaginal tract, including the cervix, was then removed and the tissue was weighed, placed in a sealed 1.8 mL cryovial and flash frozen in liquid nitrogen. The frozen vaginal tissue sample was then suspended in 1.0 mL of RPMI medium (Celox, St. Paul, Minn.) containing 10% fetal bovine serum (Atlas, Fort Collins, Colo.), 2 mM L-glutamine, penicillin/streptomycin and 2-mercaptoethanol (RPMI complete) combined with a protease inhibitor cocktail set III (Calbiochem, San Diego, Calif.). The tissue was homogenized using a Tissue Tearor (Biospec Products, Bartlesville, Okla.) for approximately one minute. The tissue suspension was then centrifuged at 2000 rpm for 10 minutes under refrigeration to pellet the debris, and the supernatant collected and stored at −20° C. until analyzed for cytokine concentrations.
(§4) ELISA kits for rat TNF were purchased from BD PharMingen (San Diego, Calif.) and the rat MCP-1 ELISA kits were purchased from BioSource Intl. (Camarillo, Calif.).
(§5) Both kits were performed according to manufacturer's specifications. Results for both TNF and MCP-1 are expressed in pg/mL and are normalized per 200 mg of tissue. […] “Post dosing” means after treatment initiation. For example, if a device was inserted a time 0 hours and removed at 2 hours and cytokines were assayed at 4 hours, then the cytokines were assayed at 4 hours post dosing.

MCP-1 = assay: Serum and vaginal tissue MCP-1 after intravaginal dosing of rats (ELISA); settings: for MCP-1 Tissue: vaginal tissue, per 200 mg
Experimental: as §1, §2, §3, §4, §5

rats [1] = assay: Histologic examination of vaginas and vulvas, Example 9; settings: removed after 2 hours, necropsied 22 hours after removal; for Vagina Erosion or ulceration / Vulva Erosion or ulceration: incidence; for Vagina Inflammation / Vulva Inflammation: mean score, 0=none to 4=severe
Experimental: Devices were prepared from either cotton as described in Example 1 or from polyurethane foam (Medisorb 100—1.25:Polysorbate 60 at 1% concentration at 1.25/1 ratio, from Lendell Manufacturing, Inc, St. Charles, Mich.). The devices were saturated with one of the following solutions: 0.1% ERM 3 in 50/50 ISA/IPM; 1.0% IRM 3 in 50/50 ISA/IPM; 3.0% IRM 3 in 50/50 ISA/IPM or with 50/50 ISA/IPM (vehicle). Rats were dosed intravaginally; the devices were removed after 2 hours. […] Cytokines were assayed at 4 hours post dosing. The results are shown in the table below where each value is the mean of the values for 3 rats.
(§6) Groups of 3 rats were treated as described in Example 5 and necropsied 22 hours after the devices were removed. Vaginas and vulvas were collected, fixed and processed routinely for histologic examination. Inflammation was scored as follows: 0=none, 1=minimal, 2=mild, 3=moderate, 4=severe. The values in the tables are the mean of the scores for 3 rats.

rats [2] = assay: Histologic examination of vaginas and vulvas, Example 10; settings: necropsied 24 hours after treatment initiation
Experimental: as §6
Cotton devices were prepared as described in Example 1. The devices were saturated with a solution containing 5% by weight of IRM 3 in 50/50 w/w isostearic acid/isopropyl myristate. One group of 5 rats was dosed intravaginally with the devices. The devices were removed after 2 hours. A second group of 5 rats was dosed intravaginally with 5% IRM 3 cream. The cream was washed out after 2 hours. A third group of 5 rats was dosed intravaginally with 5% IRM 3 cream but the cream was not removed. The rats were necropsied 24 hours after treatment initiation. Vaginas and vulvas were collected, fixed and processed routinely for histologic examination. The scoring system described in Example 9 was used.

[3] = 2 hr post dose, 5% in 50/50 ISA/IPM, cotton pellet device removed after 2 hours, Example 7
[4] = 4 hours post dosing, 0.1% in 50/50 ISA/IPM, cotton device removed after 2 hours, Example 5
[5] = 4 hours post dosing, 0.1% in 50/50 ISA/IPM, foam device removed after 2 hours, Example 5
[6] = 4 hours post dosing, 1.0% in 50/50 ISA/IPM, cotton device removed after 2 hours, Example 5
[7] = 4 hours post dosing, 1.0% in 50/50 ISA/IPM, foam device removed after 2 hours, Example 5
[8] = 4 hours post dosing, 3.0% in 50/50 ISA/IPM, cotton device removed after 2 hours, Example 5
[9] = 4 hours post dosing, 3.0% in 50/50 ISA/IPM, foam device removed after 2 hours, Example 5
[10] = 4 hr post dose, 5% in 50/50 ISA/IPM, cotton pellet device removed after 2 hours, Example 7
[11] = 6 hr post dose, 5% in 50/50 ISA/IPM, cotton pellet device removed after 2 hours, Example 7
[12] = incidence, cotton device 5% removed after 2 hours

## CC(C)Cn1cnc2c(N)nc3cccnc3c21 [IRM 3, 1-(2-methylpropyl)-1H-imidazo[4,5-c][1,5]naphthyridin-4-amine]
TNF; [3]
  TNF Serum: 4 pg/mL
  TNF Tissue: 809 pg/mL
TNF; [4]
  TNF Serum: 0 pg/mL
  TNF Tissue: 108 pg/mL
TNF; [5]
  TNF Serum: 0 pg/mL
  TNF Tissue: 85 pg/mL
TNF; [6]
  TNF Serum: 0 pg/mL
  TNF Tissue: 173 pg/mL
TNF; [7]
  TNF Serum: 0 pg/mL
  TNF Tissue: 148 pg/mL
TNF; [8]
  TNF Serum: 0 pg/mL
  TNF Tissue: 175 pg/mL
TNF; [9]
  TNF Serum: 0 pg/mL
  TNF Tissue: 302 pg/mL
TNF; [10]
  TNF Serum: 3 pg/mL
  TNF Tissue: 608 pg/mL
TNF; [11]
  TNF Serum: 5 pg/mL
  TNF Tissue: 114 pg/mL
MCP-1; [3]
  MCP-1 Serum: 95 pg/mL
  MCP-1 Tissue: 815 pg/mL
MCP-1; [4]
  MCP-1 Serum: 72 pg/mL
  MCP-1 Tissue: 179 pg/mL
MCP-1; [5]
  MCP-1 Serum: 77 pg/mL
  MCP-1 Tissue: 143 pg/mL
MCP-1; [6]
  MCP-1 Serum: 111 pg/mL
  MCP-1 Tissue: 468 pg/mL
MCP-1; [7]
  MCP-1 Serum: 86 pg/mL
  MCP-1 Tissue: 279 pg/mL
MCP-1; [8]
  MCP-1 Serum: 79 pg/mL
  MCP-1 Tissue: 402 pg/mL
MCP-1; [9]
  MCP-1 Serum: 105 pg/mL
  MCP-1 Tissue: 351 pg/mL
MCP-1; [10]
  MCP-1 Serum: 114 pg/mL
  MCP-1 Tissue: 1260 pg/mL
MCP-1; [11]
  MCP-1 Serum: 171 pg/mL
  MCP-1 Tissue: 840 pg/mL
Rats [1]; cotton device 0.1%
  Vagina Erosion or ulceration: 0/3
  Vulva Erosion or ulceration: 0/3
  Vulva Inflammation: 0.33
Rats [1]; cotton device 1.0%
  Vagina Erosion or ulceration: 0/3
  Vulva Inflammation: 0.5
Rats [1]; cotton device 1.0%, tissue from 1 rat not assessable
  Vulva Erosion or ulceration: 0/2*
Rats [1]; cotton device 3.0%
  Vagina Erosion or ulceration: 0/3
  Vulva Erosion or ulceration: 0/3
  Vulva Inflammation: 2.17
Rats [1]; foam device 0.1%
  Vagina Erosion or ulceration: 0/3
  Vulva Erosion or ulceration: 0/3
  Vulva Inflammation: 0.33
Rats [1]; foam device 1.0%
  Vagina Erosion or ulceration: 0/3
  Vulva Erosion or ulceration: 0/3
  Vulva Inflammation: 0.33
Rats [1]; foam device 3.0%
  Vagina Erosion or ulceration: 0/3
  Vulva Inflammation: 1.75
Rats [1]; foam device 3.0%, tissue from 1 rat not assessable
  Vulva Erosion or ulceration: 0/2*
Rats [1]; cotton device 0.1% in 50/50 ISA/IPM
  Vagina Inflammation: 1.0
Rats [1]; cotton device 1.0% in 50/50 ISA/IPM
  Vagina Inflammation: 2.5
Rats [1]; cotton device 3.0% in 50/50 ISA/IPM
  Vagina Inflammation: 3.17
Rats [1]; foam device 0.1% in 50/50 ISA/IPM
  Vagina Inflammation: 2.17
Rats [1]; foam device 1.0% in 50/50 ISA/IPM
  Vagina Inflammation: 2.83
Rats [1]; foam device 3.0% in 50/50 ISA/IPM
  Vagina Inflammation: 2.5
Rats [2]; [12]
  Vagina - erosion: 0/5
  Vagina - ulceration: 0/5
  Vulva - preulcer: 3/5
  Vulva - ulceration: 0/5
Rats [2]; mean score, 0=none to 4=severe, cotton device 5% in 50/50 ISA/IPM removed after 2 hours
  Vagina - Inflammation: 3.1
Rats [2]; mean score, 0=none to 4=severe, cotton device 5% removed after 2 hours
  Vulva - Inflammation: 1.7
